US8642343B2, “Blood separating agent and blood collection container” (Sekisui Medical Co., Ltd., priority 2010, dated 2014)

Assay: Solubility of polymerization inhibitors at 25° C.
Details: in water

| Compound | Solubility (25° C.) | Solubility (25° C.) (listed as hydroquinone) |
| --- | --- | --- |
| COc1ccc(O)cc1 [Material 1, p-methoxyphenol] | 4 g/100 ml |  |
| CC(C)(C)c1cc(O)c(C(C)(C)C)cc1O [Material 2, 2,5-di-t-butylhydroquinone] | 0.002 g/100 ml |  |
| c1ccc2c(c1)Nc1ccccc1S2 [Material 3, phenothiazine] | insoluble |  |
| Oc1ccc(O)cc1 [Material 4, hydroquinone, reference compound] | 7 g/100 mL g/100 ml | 7 g/100 ml |
